In patent US9822114B2, “Tricyclic oxazolidinone antibiotic compounds” (Idorsia Pharmaceuticals Ltd, priority 2008, dated 2017) one finds MIC data, which are given here for 26 compounds.

Molecules are shown by their SMILES. In brackets after ≈: the same amount, converted by molar mass.

Broadly, the MIC is the smallest concentration in the dilution series that meets the test's criterion for growth inhibition. Read a high MIC as a need for much substance.

The subject of this experiment is M. catarrhalis A894. The experiment can be described thus: Minimal inhibitory concentration (MIC), microdilution method in cation-adjusted Mueller-Hinton Broth (CLSI M7-A7). Type of experiment: cell-based. The following applies: Moraxella catarrhalis, strain A894. As to the method:
Minimal inhibitory concentrations (MICs; mg/1) were determined in cation-adjusted Mueller-Hinton Broth by a microdilution method following the description given in “Methods for Dilution Antimicrobial Susceptibility Tests for Bacteria that Grow Aerobically”, Approved standard, 7th ed., Clinical and Laboratory Standards Institute (CLSI) Document M7-A7, Wayne, Pa., USA, 2006.
For orientation: In broth dilution the organism is exposed to a series of concentrations in liquid medium.
As for `O=C1CSc2ccc(N3C[C@H](CCNC[C@H]4Cn5c(=O)ccc6ccc(F)c4c65)OC3=O)cc2N1` [Example 49, (S)-9-fluoro-1-({2-[(S)-2-oxo-3-(3-oxo-3,4-dihydro-2H-benzo[1,4]thiazin-6-yl)-oxazolidin-5-yl]-ethylamino}-methyl)-1,2-dihydro-pyrrolo[3,2,1-ij]quinolin-4-one], the MIC was no more than 0.031 µg/mL.

`O=C1CSc2ccc(N3C[C@H](CCNC[C@@H]4Cn5c(=O)ccc6ccc(F)c4c65)OC3=O)cc2N1` [Example 50, (R)-9-fluoro-1-({2-[(S)-2-oxo-3-(3-oxo-3,4-dihydro-2H-benzo[1,4]thiazin-6-yl)-oxazolidin-5-yl]-ethylamino}-methyl)-1,2-dihydro-pyrrolo[3,2,1-ij]quinolin-4-one]: the MIC was no more than 0.031 µg/mL.

In the case of `O=C1CSc2ccc(N3C[C@@H](CCN[C@@H]4Cn5c(=O)cnc6cccc4c65)OC3=O)cc2N1` [Example 54, (S)-6-{2-[(R)-2-oxo-3-(3-oxo-3,4-dihydro-2H-benzo[1,4]thiazin-6-yl)-oxazolidin-5-yl]-ethylamino}-5,6-dihydro-pyrrolo[1,2,3-de]quinoxalin-3-one], the MIC was found to be 0.25 µg/mL (≈ 0.539 µM).

`O=C1CSc2ccc(N3C[C@H](CCN[C@@H]4Cn5c(=O)cnc6cccc4c65)OC3=O)cc2N1` [Example 55, (S)-6-{2-[(S)-2-oxo-3-(3-oxo-3,4-dihydro-2H-benzo[1,4]thiazin-6-yl)-oxazolidin-5-yl]-ethylamino}-5,6-dihydro-pyrrolo[1,2,3-de]quinoxalin-3-one]: the minimal inhibitory concentration (MIC) is no more than 0.031 µg/mL.

In turn, `O=C1COc2ccc(N3C[C@@H](CCCN[C@@H]4Cn5c(=O)cnc6ccc(F)c4c65)OC3=O)cc2N1` [Example 57, (S)-7-fluoro-6-{3-[(R)-2-oxo-3-(3-oxo-3,4-dihydro-2H-benzo[1,4]oxazin-6-yl)-oxazolidin-5-yl]-propylamino}-5,6-dihydro-pyrrolo[1,2,3-de]quinoxalin-3-one] returned an MIC of no more than 0.031 µg/mL.

`O=C1CSc2ccc(N3C[C@@H](CCCN[C@@H]4Cn5c(=O)cnc6ccc(F)c4c65)OC3=O)cc2N1` [Example 58, (S)-7-fluoro-6-{3-[(R)-2-oxo-3-(3-oxo-3,4-dihydro-2H-benzo[1,4]thiazin-6-yl)-oxazolidin-5-yl]-propylamino}-5,6-dihydro-pyrrolo[1,2,3-de]quinoxalin-3-one] returned a minimum inhibitory concentration (MIC) of no more than 0.031 µg/mL.

As to `O=C1CSc2ccc(N3C[C@@H](CCCN[C@H]4Cn5c(=O)cnc6cccc4c65)OC3=O)cc2N1` [Example 64, (R)-6-{3-[(R)-2-oxo-3-(3-oxo-3,4-dihydro-2H-benzo[1,4]thiazin-6-yl)-oxazolidin-5-yl]-propylamino}-5,6-dihydro-pyrrolo[1,2,3-de]quinoxalin-3-one], the minimum inhibitory concentration (MIC) was no more than 0.031 µg/mL.

The compound `O=C1COc2ccc(N3C[C@@H](CCCN[C@H]4Cn5c(=O)cnc6cccc4c65)OC3=O)cc2N1` [Example 65, (R)-6-{3-[(R)-2-oxo-3-(3-oxo-3,4-dihydro-2H-benzo[1,4]oxazin-6-yl)-oxazolidin-5-yl]-propylamino}-5,6-dihydro-pyrrolo[1,2,3-de]quinoxalin-3-one] registered an MIC of no more than 0.031 µg/mL.

As to `O=C1CSc2ccc(N3C[C@@H](CCCN(CCO)[C@@H]4Cn5c(=O)cnc6ccc(F)c4c65)OC3=O)cc2N1` [Example 66, (S)-7-fluoro-6-((2-hydroxy-ethyl)-{3-[(R)-2-oxo-3-(3-oxo-3,4-dihydro-2H-benzo[1,4]thiazin-6-yl)-oxazolidin-5-yl]-propyl}-amino)-5,6-dihydro-pyrrolo[1,2,3-de]quinoxalin-3-one], the minimum inhibitory concentration (MIC) is no more than 0.031 µg/mL.

Turning to `O=C1COc2ccc(N3C[C@@H](CCCN(CCO)[C@@H]4Cn5c(=O)cnc6ccc(F)c4c65)OC3=O)cc2N1` [Example 67, (S)-7-fluoro-6-((2-hydroxy-ethyl)-{3-[(R)-2-oxo-3-(3-oxo-3,4-dihydro-2H-benzo[1,4]oxazin-6-yl)-oxazolidin-5-yl]-propyl}-amino)-5,6-dihydro-pyrrolo[1,2,3-de]quinoxalin-3-one], the minimum inhibitory concentration (MIC) is no more than 0.063 µg/mL.

`O=C1COc2ccc(N3C[C@@H](CCCN[C@@H]4Cn5c(=O)cnc6ccc(F)c4c65)OC3=O)nc2N1` [Example 71, (S)-7-fluoro-6-{3-[(R)-2-oxo-3-(3-oxo-3,4-dihydro-2H-pyrido[3,2-b][1,4]oxazin-6-yl)-oxazolidin-5-yl]-propylamino}-5,6-dihydro-pyrrolo[1,2,3-de]quinoxalin-3-one] registered an MIC of no more than 0.031 µg/mL.

`O=C1CSc2ccc(N3C[C@@H](CCCN[C@@H]4Cn5c(=O)ccc6cccc4c65)OC3=O)cc2N1` [Example 72, (S)-1-{3-[(R)-2-oxo-3-(3-oxo-3,4-dihydro-2H-benzo[1,4]thiazin-6-yl)-oxazolidin-5-yl]-propylamino}-1,2-dihydro-pyrrolo[3,2,1-ij]quinolin-4-one]: the minimum inhibitory concentration (MIC) is no more than 0.031 µg/mL.

`O=C1COc2ccc(N3C[C@@H](CCCN[C@@H]4Cn5c(=O)ccc6cccc4c65)OC3=O)cc2N1` [Example 73, (S)-1-{3-[(R)-2-oxo-3-(3-oxo-3,4-dihydro-2H-benzo[1,4]oxazin-6-yl)-oxazolidin-5-yl]-propylamino}-1,2-dihydro-pyrrolo[3,2,1-ij]quinolin-4-one] had an MIC of no more than 0.031 µg/mL.

For `O=C1COc2ccc(N3C[C@@H](CCCN[C@@H]4Cn5c(=O)ccc6cccc4c65)OC3=O)nc2N1` [Example 74, (S)-1-{3-[(R)-2-oxo-3-(3-oxo-3,4-dihydro-2H-pyrido[3,2-b][1,4]oxazin-6-yl)-oxazolidin-5-yl]-propylamino}-1,2-dihydro-pyrrolo[3,2,1-ij]quinolin-4-one], the MIC is no more than 0.031 µg/mL.

Compound `O=C1COc2ccc(N3C[C@@H](CCCN[C@H]4Cn5c(=O)cnc6cccc4c65)OC3=O)nc2N1` [Example 75, (R)-6-{3-[(R)-2-oxo-3-(3-oxo-3,4-dihydro-2H-pyrido[3,2-b][1,4]oxazin-6-yl)-oxazolidin-5-yl]-propylamino}-5,6-dihydro-pyrrolo[1,2,3-de]quinoxalin-3-one] yielded an MIC of no more than 0.031 µg/mL.

With `O=C1CSc2ccc(N3C[C@@H](CCNC[C@H]4Cn5c(=O)ccc6nccc4c65)OC3=O)cc2N1` [Example 76, (S)-4-({2-[(R)-2-oxo-3-(3-oxo-3,4-dihydro-2H-benzo[1,4]thiazin-6-yl)-oxazolidin-5-yl]-ethylamino}-methyl)-4,5-dihydro-pyrrolo[3,2,1-de][1,5]naphthyridin-7-one], the minimal inhibitory concentration (MIC) was no more than 0.031 µg/mL.

`O=C1CSc2ccc(N3C[C@H](CCNC[C@H]4Cn5c(=O)ccc6nccc4c65)OC3=O)cc2N1` [Example 77, (S)-4-({2-[(S)-2-oxo-3-(3-oxo-3,4-dihydro-2H-benzo[1,4]thiazin-6-yl)-oxazolidin-5-yl]-ethylamino}-methyl)-4,5-dihydro-pyrrolo[3,2,1-de][1,5]naphthyridin-7-one]: the MIC was determined as 0.031 µg/mL (≈ 0.0649 µM).

Take `O=C1CSc2ccc(N3C[C@H](CCNC[C@@H]4Cn5c(=O)ccc6nccc4c65)OC3=O)cc2N1` [Example 78, (R)-4-({2-[(S)-2-oxo-3-(3-oxo-3,4-dihydro-2H-benzo[1,4]thiazin-6-yl)-oxazolidin-5-yl]-ethylamino}-methyl)-4,5-dihydro-pyrrolo[3,2,1-de][1,5]naphthyridin-7-one]: the MIC is no more than 0.031 µg/mL.

On to `O=C1CSc2ccc(N3C[C@H](CCCN[C@@H]4Cn5c(=O)cnc6ccc(F)c4c65)OC3=O)cc2N1` [Example 79, (S)-7-fluoro-6-{3-[(S)-2-oxo-3-(3-oxo-3,4-dihydro-2H-benzo[1,4]thiazin-6-yl)-oxazolidin-5-yl]-propylamino}-5,6-dihydro-pyrrolo[1,2,3-de]quinoxalin-3-one], for which the MIC is no more than 0.031 µg/mL.

Regarding `O=C1COc2ccc(N3C[C@H](CCCN[C@@H]4Cn5c(=O)cnc6ccc(F)c4c65)OC3=O)cc2N1` [Example 80, (S)-7-fluoro-6-{3-[(S)-2-oxo-3-(3-oxo-3,4-dihydro-2H-benzo[1,4]oxazin-6-yl)-oxazolidin-5-yl]-propylamino}-5,6-dihydro-pyrrolo[1,2,3-de]quinoxalin-3-one], the minimum inhibitory concentration (MIC) was no more than 0.031 µg/mL.

For `O=C1CSc2ccc(N3C[C@H](CCCN[C@@H]4Cn5c(=O)ccc6cccc4c65)OC3=O)cc2N1` [Example 85, (S)-1-{3-[(S)-2-oxo-3-(3-oxo-3,4-dihydro-2H-benzo[1,4]thiazin-6-yl)-oxazolidin-5-yl]-propylamino}-1,2-dihydro-pyrrolo[3,2,1-ij]quinolin-4-one], the minimal inhibitory concentration (MIC) is no more than 0.031 µg/mL.

`O=C1COc2ccc(N3C[C@H](CCCN[C@@H]4Cn5c(=O)ccc6cccc4c65)OC3=O)cc2N1` [Example 86, (S)-1-{3-[(S)-2-oxo-3-(3-oxo-3,4-dihydro-2H-benzo[1,4]oxazin-6-yl)-oxazolidin-5-yl]-propylamino}-1,2-dihydro-pyrrolo[3,2,1-ij]quinolin-4-one] came in with an MIC of no more than 0.031 µg/mL.

The compound `O=C1CSc2ccc(N3C[C@@H](CCN[C@@H]4Cn5c(=O)ccc6cccc4c65)OC3=O)cc2N1` [Example 87, (S)-1-{2-[(R)-2-oxo-3-(3-oxo-3,4-dihydro-2H-benzo[1,4]thiazin-6-yl)-oxazolidin-5-yl]-ethylamino}-1,2-dihydro-pyrrolo[3,2,1-ij]quinolin-4-one] returned an MIC of no more than 0.031 µg/mL.

`O=C1CSc2ccc(N3C[C@H](CCN[C@@H]4Cn5c(=O)ccc6cccc4c65)OC3=O)cc2N1` [Example 88, (S)-1-{2-[(S)-2-oxo-3-(3-oxo-3,4-dihydro-2H-benzo[1,4]thiazin-6-yl)-oxazolidin-5-yl]-ethylamino}-1,2-dihydro-pyrrolo[3,2,1-ij]quinolin-4-one] gave a minimal inhibitory concentration (MIC) of no more than 0.031 µg/mL.

`O=C1COc2ccc(N3C[C@H](CCN[C@@H]4Cn5c(=O)ccc6cccc4c65)OC3=O)cc2N1` [Example 89, (S)-1-{2-[(S)-2-oxo-3-(3-oxo-3,4-dihydro-2H-benzo[1,4]oxazin-6-yl)-oxazolidin-5-yl]-ethylamino}-1,2-dihydro-pyrrolo[3,2,1-ij]quinolin-4-one] displayed an MIC of 0.063 µg/mL (≈ 0.141 µM).

With `O=C1COc2ccc(N3C[C@@H](CCCN[C@H]4Cn5c(=O)cnc6ccc(F)c4c65)OC3=O)cc2N1` [Example 104, (R)-7-fluoro-6-{3-[(R)-2-oxo-3-(3-oxo-3,4-dihydro-2H-benzo[1,4]oxazin-6-yl)-oxazolidin-5-yl]-propylamino}-5,6-dihydro-pyrrolo[1,2,3-de]quinoxalin-3-one], the minimal inhibitory concentration (MIC) is no more than 0.031 µg/mL.
